Source: ChEMBL document CHEMBL4196103, “Bioactive Sesquiterpenoids from the Peeled Stems of Syringa pinnatifolia” (J Nat Prod, 2018)
Activity calls are given as the source filed them. The rule behind the calls is not given here.

Assays:
RAW264.7 [1] = assay: Antiinflammatory activity against mouse RAW264.7 cells assessed as inhibition of LPS-induced NO production preincubated for 2 hrs followed by LPS stimulation measured after 24 hrs by Griess reagent based assay; format: functional, cell-based
RAW264.7 [2] = assay: Antiinflammatory activity against mouse RAW264.7 cells assessed as inhibition of LPS-induced TNFalpha production preincubated for 1 hr followed by LPS stimulation measured after 24 hrs by ELISA; format: functional, cell-based
RAW264.7 [3] = assay: Antiinflammatory activity against mouse RAW264.7 cells assessed as inhibition of LPS-induced IL-6 production preincubated for 1 hr followed by LPS stimulation measured after 24 hrs by ELISA; format: functional, cell-based
RAW264.7 [4] = assay: Antiinflammatory activity against mouse RAW264.7 cells assessed as inhibition of LPS-induced NO production at 80 uM preincubated for 2 hrs followed by LPS stimulation measured after 24 hrs by Griess reagent based assay relative to control; format: functional
Mus musculus = organism: Mus musculus; assay: Protection against hypoxia-induced injury in […] cells assessed as increase in cell viability at 40 uM incubated for 20 hrs under hypoxia condition by CCK-8 assay; format: functional, cell-based
[5] = Cytotoxicity against […] cells assessed as decrease in cell viability at 20 uM incubated for 24 hrs by CCK-8 assay; format: cell-based

IC50 (RAW264.7 [1])	SMILES	inhibition (RAW264.7 [2])	inhibition (RAW264.7 [3])	inhibition at 80 µM (RAW264.7 [4])	also measured
33.1 µM	C/C1=C\CC(C)(C)/C=C/C(=O)[C@H](CO)CCC1	Dose-dependent effect	Dose-dependent effect		
	C/C1=C\CC[C@@]2(C)O[C@@H]2[C@@H](O)C(C)(C)/C=C/C1=O			< 50%	
	CC1(C)C/C=C(/C=O)CC[C@H]2[C@H]1CC(=O)[C@]2(C)O			< 50%	
	C=C1CC[C@H]2O[C@]2(C)[C@@H](O)C[C@@H]2[C@@H]1CC2(C)C [SUBEROSOL A]			< 50%	
	C=C1C(=O)C/C=C(\C)[C@@H](O)C[C@@H]2[C@@H]1CC2(C)C			< 50%	
	C/C1=C\CC(C)(C)/C=C/C(=O)[C@@H](C)[C@@H](O)CC1			< 50%	
33.6 µM	COc1ccc2c(c1)c(CC(=O)O)c(C)n2C(=O)c1ccc(Cl)cc1 [INDOMETHACIN]				
	C/C1=C\CC(C)(C)/C=C/[C@H](O)[C@H](C)CCC1			< 50%	
	C/C1=C\CC(C)(C)/C=C/C(=O)[C@H](C)[C@H](O)CC1			< 50%	
27.2 µM	CO[C@@H]1CC/C(C)=C/CC(C)(C)/C=C/C(=O)[C@H]1CO	Dose-dependent effect	Dose-dependent effect		Activity (Mus musculus): Active
	CO[C@H]1CC[C@]2(C)O[C@H]2CC(C)(C)/C=C/C(=O)[C@H]1C			< 50%	
	CO[C@@H]1CC[C@@]2(C)O[C@@H]2CC(C)(C)/C=C/C(=O)[C@@H]1C			< 50%	
	C=C1CC[C@H](O)[C@H](C)C(=O)C[C@@H]2[C@@H]1CC2(C)C			< 50%	
	C/C1=C\C[C@H](O)[C@]2(C)O[C@H]2CC(C)(C)/C=C/C1=O			< 50%	
	CCC(=O)/C=C/C(C)(C)C/C=C(\C)CCC=O			< 50%	
	CC1(C)C/C=C(/C=O)CC[C@@H]2[C@@H]1CC(=O)[C@@]2(C)O			< 50%	
18.1 µM	COC1CC/C(C)=C/CC(C)(C)/C=C/C(=O)C1CO (centres undefined)	Dose-dependent effect	Dose-dependent effect		Activity (Mus musculus): Active
13.6 µM	C/C1=C\CC(C)(C)/C=C/C(=O)/C(C)=C/CC1 [ZERUMBONE]	Dose-dependent effect	Dose-dependent effect		Activity (Mus musculus): Active
22.3 µM	C/C1=C\CC[C@@]2(C)O[C@@H]2CC(C)(C)/C=C/C1=O [ZERUMBONE EPOXIDE]	Dose-dependent effect	Dose-dependent effect		
	C/C1=C\CC(C)(C)/C=C/C(=O)/C(CO)=C/CC1				Activity [5]: Toxic
70.6 µM	C/C1=C\CC(C)(C)/C=C/C(=O)[C@@H](CO)CCC1	Dose-dependent effect	Dose-dependent effect		
41.4 µM	CO[C@H]1CC/C(C)=C/CC(C)(C)/C=C/C(=O)[C@@H]1CO	Dose-dependent effect	Dose-dependent effect		
